From patent publication US20230190690A1, “[…] AND/OR […] FOR CORONAVIRUS DISEASE 2019 (COVID-19)” (NEOPHARMA JAPAN CO., LTD., priority 2020, published 2023)
Like-named read-outs stand apart in the source and are kept apart here.

Experiments:
SARS-CoV-2 [1] = test: microbe, parasite or virus in culture; format: cell-based, SARS-CoV-2 (VeroE6, African green monkey kidney cells)
[2] = tested on: VeroE6 cells, Caco-2 cells; test: Cytotoxic effect in VeroE6 and Caco-2 cells; format: cell-based; details: all concentration ranges tested (up to 2000 uM)
Description: In order to confirm the dose dependence in the inhibitory effect on SARS-CoV-2 infection and/or proliferation, the agents at each concentration were tested.

[3] = tested on: coronavirus disease 2019 (COVID-19); test: Treatment example: intake of supplement capsules by a patient with COVID-19 symptoms; format: in vivo, human; details: 1 patient; intake of capsules over two days
SARS-CoV-2 [4] = test: microbe, parasite or virus in culture; format: cell-based, SARS-CoV-2 (Caco-2, human colon cancer cells)

Compound	IC50 (SARS-CoV-2 [1]; Severe acute respiratory syndrome coronavirus 2, Vero C1008, VeroE6 cells, FIG. 5, read-out: IC50 of inhibition of SARS-CoV-2 infection and/or proliferation) [µM]	infection with SARS-CoV-2 (SARS-CoV-2 [1]; VeroE6, number of seeded cells 1×10^4 cells/well)	cytotoxicity [2]	various symptoms of coronavirus disease 2019 (COVID-19) [3]	SARS-CoV-2 infection and/or proliferation (SARS-CoV-2 [4])	IC50 (SARS-CoV-2 [4]; Severe acute respiratory syndrome coronavirus 2, Caco-2 cells, FIG. 6, read-out: IC50 of inhibition of SARS-CoV-2 infection and/or proliferation) [µM]	inhibitory effect on SARS-CoV-2 infection and/or proliferation, dose dependence (SARS-CoV-2 [1]; VeroE6 cells, FIG. 5)
NCC(=O)CCC(=O)O [5-ALA, 5-aminolevulinic acid]	570	significantly inhibited	did not show significant cytotoxicity	remarkably improved	strongly inhibited	39	
sodium ferrous citrate [SFC]							no inhibitory effect
